We go through 2 molecules from ChEMBL document CHEMBL4373679, “Overcoming synthetic challenges in targeting coenzyme A biosynthesis with the antimicrobial natural product CJ-15,801” (Medchemcomm, 2019).

Common to all, as to type: functional, organism-based
In experiment [1] the test system is Plasmodium falciparum. The experiment is described as follows: Antimalarial activity against Plasmodium falciparum infected in erythrocytes in presence of 1 uM pantothenic acid and TBA salt form by SYBR safe-based fluorescence assay.
Experiment [2] deals with Plasmodium falciparum. Kind of experiment: Antimalarial activity against Plasmodium falciparum infected in erythrocytes in presence of 1 uM pantothenic acid by SYBR safe-based fluorescence assay.
Experiment [3] has as its system Plasmodium falciparum. Kind of experiment: Antimalarial activity against Plasmodium falciparum infected in erythrocytes in presence of 100 uM pantothenic acid and TBA salt form by SYBR safe-based fluorescence assay.

A word on the IC50: it is the midpoint of a concentration-inhibition curve. With `CC(C)(CO)[C@@H](O)C(=O)N/C=C/C(=O)O`, the IC50 was determined as 25 µM in experiment [1], 64 µM in experiment [2] and 25 µM in experiment [3].
As to `CCCC[N+](CCCC)(CCCC)CCCC` [TETRABUTHYLAMMONIUM], the IC50 in experiment [2] is 5 µM.
